Consider eleven molecules from ChEMBL document CHEMBL1201862, “PubChem BioAssay data set” (2004).

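Five concentrations, 48 hours, 96-well plates. The concentration for 50% growth inhibition is given as GI50.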 Calls of active or inactive are those of the source. No stated cut-off is given here; in the data, active = GI50 up to about 1.1 µM and inactive = higher.

Among the test systems are HCC 2998; IGROV-1; SF-295; HCT-15; Malme-3M; UO-31; CAKI-1; OVCAR-5; NCI-H23; OVCAR-4; KM12; EKVX; SK-MEL-28; SN12C; U-251; NCI-H226; SW-620; OVCAR-3.
What all share (test): NCI-60 cell line screen, 48 h

As to `O=C(O)c1cc2c3ccccc3nc-2c[nH]1`, the GI50 in the assay on HCC 2998 was > 100 µM (inactive); with IGROV-1, > 100 µM (inactive); in the assay with SF-295 it was > 100 µM (inactive); in the assay with HCT-15, over 100 µM; in the assay on Malme-3M, > 100 µM (inactive); in the assay on UO-31, > 100 µM (inactive). Further, the GI50 in the assay with CAKI-1, with OVCAR-5, in the assay with NCI-H23, with OVCAR-4, with KM12 and in the assay with EKVX was > 100 µM (inactive) throughout. Besides, the GI50 with SK-MEL-28, with SN12C, with U-251, in the assay on NCI-H226, with SW-620 and in the assay on OVCAR-3 was > 100 µM (inactive) each time.
On to `CC1=C(c2ccccc2)C(c2ccccc2)=C(c2ccccc2)C2(c3ccccc3)C(=O)C(C)CN12` (stereo not drawn), for which the GI50 was > 100 µM (inactive) with HCC 2998; 99.5 µM (inactive) with IGROV-1; 13.3 µM (inactive) with SF-295; 61.2 µM in the assay on HCT-15; > 100 µM (inactive) in the assay with Malme-3M; > 100 µM (inactive) in the assay on UO-31. The GI50 in the assay with CAKI-1 was 57.3 µM (inactive); with OVCAR-5, 49.9 µM (inactive); with OVCAR-4 it was 20.8 µM (inactive); in the assay on KM12, 43.1 µM (inactive); with EKVX it was 41.4 µM (inactive); with SK-MEL-28, > 100 µM (inactive). Moreover, the GI50 with SN12C is 41.7 µM (inactive); with U-251 it was 30.3 µM (inactive); in the assay on NCI-H226, 21 µM (inactive); in the assay on SW-620, 79.1 µM (inactive); with OVCAR-3, 34.7 µM (inactive).
As to `CCOc1ccc2c(c1)[n+]([O-])c(-c1ccc(Br)cc1)c(N)[n+]2[O-]`, the GI50 with HCC 2998 was > 100 µM (inactive); in the assay with IGROV-1, 67 µM (inactive); in the assay with SF-295, > 100 µM (inactive); with HCT-15, 47 µM; with Malme-3M, 55.6 µM (inactive); in the assay with UO-31 it was 67.3 µM (inactive). Also, the GI50 with CAKI-1 was 27.2 µM (inactive); in the assay on OVCAR-5, > 100 µM (inactive); with NCI-H23 it was 22.8 µM (inactive); in the assay on OVCAR-4, > 100 µM (inactive); in the assay with KM12, 85.5 µM (inactive); in the assay with EKVX, 52.8 µM (inactive). In addition, the GI50 was 30.9 µM (inactive) with SK-MEL-28; 71 µM (inactive) with SN12C; 47.3 µM (inactive) with U-251; > 100 µM (inactive) in the assay with NCI-H226; > 100 µM (inactive) in the assay on SW-620; 48.1 µM (inactive) in the assay on OVCAR-3.
Regarding `CN(C)c1ccc(/C=N\N2C(=O)c3ccccc3C2=O)cc1`, the GI50 in the assay with HCC 2998 was > 100 µM (inactive); with IGROV-1 it was > 100 µM (inactive); with SF-295 it was > 100 µM (inactive); in the assay with HCT-15, over 100 µM; in the assay with Malme-3M, > 100 µM (inactive); in the assay with UO-31 it was > 100 µM (inactive). The GI50 in the assay with CAKI-1, in the assay with OVCAR-5, with NCI-H23, in the assay on OVCAR-4, in the assay on KM12 and with EKVX was > 100 µM (inactive) in each case. For the same molecule, the GI50 in the assay with SK-MEL-28, with SN12C, in the assay with NCI-H226, with SW-620 and in the assay on OVCAR-3 was > 100 µM (inactive) each time.
Take `N#C/C(=C/c1ccsc1)C(=O)c1ccccc1`: the GI50 is > 100 µM (inactive) in the assay with HCC 2998; > 100 µM (inactive) with SF-295; over 100 µM in the assay on HCT-15; > 100 µM (inactive) in the assay on Malme-3M; > 100 µM (inactive) in the assay on UO-31; > 100 µM (inactive) in the assay on CAKI-1. Further, the GI50 with OVCAR-5, in the assay on NCI-H23, with OVCAR-4, with KM12, in the assay with EKVX and in the assay on SK-MEL-28 was > 100 µM (inactive) each time. Further, the GI50 in the assay on SN12C, in the assay on U-251, with NCI-H226, with SW-620 and in the assay with OVCAR-3 was > 100 µM (inactive) in each case.
As to `COC(=O)CCC(=O)CC(=O)C(=O)Nc1ccc(F)cc1`, the GI50 with HCC 2998 is > 100 µM (inactive); in the assay with IGROV-1, > 100 µM (inactive); in the assay on HCT-15, over 100 µM; in the assay on Malme-3M, > 100 µM (inactive); with UO-31, > 100 µM (inactive); in the assay on CAKI-1 it was > 100 µM (inactive). In addition, the GI50 in the assay with OVCAR-5, in the assay on NCI-H23, in the assay with OVCAR-4, in the assay with KM12, in the assay with EKVX and in the assay with SK-MEL-28 was > 100 µM (inactive) each time. Further, the GI50 with SN12C, in the assay on U-251, in the assay with NCI-H226, with SW-620 and with OVCAR-3 was > 100 µM (inactive) in each case.
`O=S1(=O)NN=C(NCc2ccc(Cl)cc2)c2ccccc21`: the GI50 with HCC 2998 is > 100 µM (inactive); with IGROV-1 it was > 100 µM (inactive); in the assay on SF-295 it was > 100 µM (inactive); with HCT-15, 67 µM; in the assay on Malme-3M, > 100 µM (inactive); in the assay with UO-31 it was > 100 µM (inactive). Also, the GI50 in the assay on CAKI-1 is > 100 µM (inactive); in the assay with OVCAR-5, > 100 µM (inactive); in the assay on OVCAR-4, > 100 µM (inactive); in the assay with KM12, > 100 µM (inactive); in the assay on EKVX, 46.9 µM (inactive); in the assay with SN12C, > 100 µM (inactive). In addition, the GI50 in the assay with U-251 is 50.4 µM (inactive); in the assay with NCI-H226 it was > 100 µM (inactive); in the assay with SW-620 it was > 100 µM (inactive); in the assay with OVCAR-3, > 100 µM (inactive).
As for `COC(=O)C1=Cc2cn(S(=O)(=O)c3ccc(C)cc3)c3cccc(c23)C(C=C(C)C)N1C(C)=O` (stereo not drawn), the GI50 in the assay with HCC 2998 was > 100 µM (inactive); with IGROV-1 it was 48.8 µM (inactive); in the assay with SF-295, 6.11 µM (inactive); in the assay with Malme-3M, 16.8 µM (inactive); with UO-31 it was 26.1 µM (inactive); in the assay with CAKI-1, 12.6 µM (inactive). The GI50 in the assay with OVCAR-5 is > 100 µM (inactive); in the assay with NCI-H23 it was 36.9 µM (inactive); in the assay with OVCAR-4 it was 8.67 µM (inactive); in the assay on KM12, > 100 µM (inactive); with EKVX, > 100 µM (inactive); in the assay with SK-MEL-28 it was > 10 µM (inactive). Further, the GI50 was 14.1 µM (inactive) in the assay with SN12C; 45.6 µM (inactive) in the assay on U-251; > 100 µM (inactive) in the assay on NCI-H226; 32.7 µM (inactive) in the assay with SW-620; 9.14 µM (inactive) with OVCAR-3.
As to `CC(C)(C)OC(=O)NCCc1cccc2c1oc1c(CCC(=O)O)cccc12`, the GI50 in the assay with HCC 2998 was > 100 µM (inactive); in the assay on IGROV-1, > 100 µM (inactive); in the assay with SF-295 it was > 100 µM (inactive); in the assay on HCT-15 it was over 100 µM; in the assay on Malme-3M, > 100 µM (inactive); in the assay on UO-31, > 100 µM (inactive). The GI50 with CAKI-1, in the assay on OVCAR-5, in the assay on NCI-H23, in the assay with OVCAR-4, in the assay on KM12 and with SK-MEL-28 was > 100 µM (inactive) in each case. For the same molecule, the GI50 in the assay on SN12C is > 100 µM (inactive); in the assay with U-251, > 100 µM (inactive); in the assay on NCI-H226, > 100 µM (inactive); with SW-620, > 100 µM (inactive); with OVCAR-3, 50.7 µM (inactive).
For `C=C1CC2CC[C@@]34C[C@@H]5O[C@@H]6C(O[C@H]7CC[C@H](CC(=O)OC8[C@@H](C)C9OC%10C[C@]%11(C[C@@H]%12O[C@@]%13(C[C@@H](C)[C@@H]%12O%11)C[C@H](C)[C@@H]%11OC%12CC(C(O)CO)OC%12C[C@@H]%11O%13)OC%10CC9O[C@H]8C[C@H]8O[C@@H](CC[C@@H]1O2)C[C@@H](C)C8=C)O[C@@H]7[C@@H]6O3)C5O4` (stereo partly drawn), the GI50 with HCC 2998 is 0.00225 µM (active); in the assay on IGROV-1, 0.00248 µM (active); in the assay on SF-295 it was 0.000453 µM (active); in the assay with HCT-15 it was 0.000476 µM; with Malme-3M, 0.000904 µM (active); in the assay with UO-31, 0.00673 µM (active). The GI50 was 0.000484 µM (active) in the assay on CAKI-1; 0.00904 µM (active) in the assay on OVCAR-5; 0.00104 µM (active) in the assay with NCI-H23; 0.00471 µM (active) with OVCAR-4; 0.000494 µM (active) in the assay on KM12; 0.00405 µM (active) in the assay on EKVX. For the same molecule, the GI50 in the assay on SK-MEL-28 was 0.0014 µM (active); in the assay with SN12C, 0.00313 µM (active); in the assay with U-251, 0.00103 µM (active); with NCI-H226, 0.00179 µM (active); in the assay on SW-620 it was 0.000485 µM (active); in the assay with OVCAR-3, 0.000279 µM (active).
For the molecule `Cc1[nH]c(O)nc1C(=O)c1ccc(-n2ccnc2)cc1`, the GI50 with HCC 2998 is > 100 µM (inactive); with IGROV-1, > 100 µM (inactive); in the assay with SF-295, > 100 µM (inactive); with HCT-15 it was over 100 µM; in the assay with Malme-3M it was > 100 µM (inactive); with UO-31, > 100 µM (inactive). The GI50 in the assay with CAKI-1, in the assay on OVCAR-5, with OVCAR-4, with KM12, in the assay on SK-MEL-28 and in the assay with SN12C was > 100 µM (inactive) in each case. Moreover, the GI50 in the assay with U-251, in the assay on NCI-H226, in the assay on SW-620 and in the assay with OVCAR-3 was > 100 µM (inactive) in each case.
